Measurements reported in paper PMC7112848 (Journal of Virological Methods, 2008).

Target: rgH1N1 NA (Influenza A virus, UniProt Q6DPL2)
Type: biochemical, reverse-genetic influenza A virus rgH1N1

rgH1N1 NA, sequence (Q6DPL2 whole entry, looked up): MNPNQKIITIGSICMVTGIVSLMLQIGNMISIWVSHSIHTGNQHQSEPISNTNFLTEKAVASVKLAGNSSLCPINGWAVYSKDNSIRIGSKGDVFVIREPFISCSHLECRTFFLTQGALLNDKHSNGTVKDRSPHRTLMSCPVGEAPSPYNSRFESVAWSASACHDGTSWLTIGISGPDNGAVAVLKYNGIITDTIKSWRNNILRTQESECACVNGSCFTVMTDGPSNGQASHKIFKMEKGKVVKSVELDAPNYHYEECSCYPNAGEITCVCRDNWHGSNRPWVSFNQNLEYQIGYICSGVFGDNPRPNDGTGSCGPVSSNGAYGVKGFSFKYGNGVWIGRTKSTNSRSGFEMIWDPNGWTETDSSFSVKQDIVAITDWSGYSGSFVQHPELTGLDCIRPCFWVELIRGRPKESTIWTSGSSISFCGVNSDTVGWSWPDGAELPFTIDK

CC(=O)N[C@@H]1[C@@H](O)C[C@](Oc2ccc3c(C)cc(=O)oc3c2)(C(=O)O)O[C@H]1C(O)[C@H](O)CO (stereo partly drawn) [MUNANA, 2′-(4-methylumbelliferyl)-α-D-N-acetylneuraminic acid]
Km: 18 ± 2 µM
